Measurements taken from patent US7396837B2, “Antitumoral analogs of lamellarins” (Pharma Mar, S.A.U., priority 2002, dated 2008).
Entries after “also recorded” stand apart in the source; their conditions may differ. Like-named read-outs stand apart in the source and are kept apart here.

Assays:
A-549 = test: SRB colorimetric cell growth inhibition assay, A-549; assay type: cell-based; conditions: Homo sapiens, A549, A-549; for GI50: GI=growth inhibition, read-out: GI50 A-549; for CC50: LC=cell killing (cytotoxic effect), read-out: LC50 A-549; for IC (TGI): TGI=total growth inhibition (cytostatic effect), read-out: TGI A-549
How it was run: (§1)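 Continuous-exposure format, human tumour lines. SRB colour reaction quantifies growth/viability. Triplicate wells → mean ± SD → GI, TGI, LC.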

K-562 = test: SRB colorimetric cell growth inhibition assay, K-562; assay type: cell-based; conditions: Homo sapiens, K562, K-562; for GI50: GI=growth inhibition, read-out: GI50 K-562; for CC50: LC=cell killing (cytotoxic effect), read-out: LC50 K-562; for IC (TGI): TGI=total growth inhibition (cytostatic effect), read-out: TGI K-562
How it was run: as §1

SK-MEL-28 = test: SRB colorimetric cell growth inhibition assay, SK-MEL-28; assay type: cell-based; conditions: Homo sapiens, SK-MEL-28, MEL-28; for GI50: GI=growth inhibition, read-out: GI50 MEL-28; for CC50: cell killing (cytotoxic effect), read-out: LC50 MEL-28; for IC (TGI): total growth inhibition (cytostatic effect), read-out: TGI MEL-28
How it was run: as §1

LNCaP = test: SRB colorimetric cell growth inhibition assay, LNCaP; assay type: cell-based; conditions: Homo sapiens, LNCaP, LN-caP; for GI50: GI=growth inhibition, read-out: GI50 LN-caP; for CC50: cell killing (cytotoxic effect), read-out: LC50 LN-caP; for IC (TGI): total growth inhibition (cytostatic effect), read-out: TGI LN-caP
How it was run: as §1

DU-145 = test: SRB colorimetric cell growth inhibition assay, DU-145; assay type: cell-based; conditions: Homo sapiens; for CC50: cell killing (cytotoxic effect), read-out: LC50 DU-145; for GI50: GI=growth inhibition, read-out: GI50 DU-145; for IC (TGI): total growth inhibition (cytostatic effect), read-out: TGI DU-145
How it was run: as §1

human topoisomerase I = target: T1, human topoisomerase I (Homo sapiens, UniProt P11387); test: Topoisomerase I DNA relaxation assay (supercoiled plasmid DNA); assay type: biochemical; conditions: supercoiled plasmid DNA, each compound tested at 1 μM, agarose gel with ethidium bromide
T1 sequence (P11387 1-765): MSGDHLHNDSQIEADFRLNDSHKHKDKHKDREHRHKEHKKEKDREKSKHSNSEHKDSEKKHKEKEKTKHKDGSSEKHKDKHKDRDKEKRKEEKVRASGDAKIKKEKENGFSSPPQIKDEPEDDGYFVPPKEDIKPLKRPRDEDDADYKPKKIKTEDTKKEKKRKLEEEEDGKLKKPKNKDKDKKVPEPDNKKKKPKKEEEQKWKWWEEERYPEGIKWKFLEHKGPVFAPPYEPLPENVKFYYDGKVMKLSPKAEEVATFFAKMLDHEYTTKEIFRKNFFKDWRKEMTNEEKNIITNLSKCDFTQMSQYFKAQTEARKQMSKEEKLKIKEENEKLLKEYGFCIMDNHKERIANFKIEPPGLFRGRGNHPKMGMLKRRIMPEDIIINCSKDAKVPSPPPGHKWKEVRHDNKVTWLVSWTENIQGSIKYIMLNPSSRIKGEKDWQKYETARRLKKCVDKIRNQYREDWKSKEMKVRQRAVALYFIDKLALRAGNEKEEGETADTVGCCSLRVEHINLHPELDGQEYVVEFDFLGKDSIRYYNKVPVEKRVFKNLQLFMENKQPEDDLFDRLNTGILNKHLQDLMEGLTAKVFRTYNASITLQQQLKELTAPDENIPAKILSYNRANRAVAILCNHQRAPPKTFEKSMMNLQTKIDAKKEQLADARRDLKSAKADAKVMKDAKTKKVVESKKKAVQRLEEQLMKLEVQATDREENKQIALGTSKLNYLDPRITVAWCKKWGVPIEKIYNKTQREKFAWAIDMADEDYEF
How it was run: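 Supercoiled plasmid DNA was relaxed by human topoisomerase I with or without test compound at 1 μM. Products were resolved by agarose gel electrophoresis with ethidium bromide staining.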

SK-BR-3 = test: SRB colorimetric cell growth inhibition assay, SK-BR-3; assay type: cell-based; conditions: Homo sapiens; for CC50: cell killing (cytotoxic effect), read-out: LC50 SK-BR-3; for GI50: GI=growth inhibition, read-out: GI50 SK-BR-3; for IC (TGI): total growth inhibition (cytostatic effect), read-out: TGI SK-BR-3
How it was run: as §1

IGROV = test: SRB colorimetric cell growth inhibition assay, IGROV; assay type: cell-based
How it was run: as §1

HT-29 = test: SRB colorimetric cell growth inhibition assay, HT-29; assay type: cell-based; conditions: Homo sapiens; for CC50: LC=cell killing (cytotoxic effect), read-out: LC50 HT-29; for GI50: GI=growth inhibition, read-out: GI50 HT-29; for IC (TGI): TGI=total growth inhibition (cytostatic effect), read-out: TGI HT-29
How it was run: as §1

IGROV-ET = test: SRB colorimetric cell growth inhibition assay, IGROV-ET (ET-743 resistant); assay type: cell-based; conditions: Homo sapiens, IGROV-ET; for GI50: GI=growth inhibition, read-out: GI50 IGROV-ET; for CC50: cell killing (cytotoxic effect), read-out: LC50 IGROV-ET; for IC (TGI): total growth inhibition (cytostatic effect), read-out: TGI IGROV-ET
How it was run: as §1

LoVo = test: SRB colorimetric cell growth inhibition assay, LoVo; assay type: cell-based; conditions: Homo sapiens; for CC50: LC=cell killing (cytotoxic effect), read-out: LC50 LOVO; for GI50: GI=growth inhibition, read-out: GI50 LOVO; for IC (TGI): TGI=total growth inhibition (cytostatic effect), read-out: TGI LOVO
How it was run: as §1

SKOV-3 = test: SRB colorimetric cell growth inhibition assay, SKOV-3; assay type: cell-based; conditions: Homo sapiens; for GI50: SK-OV-3, SKOV-3, GI=growth inhibition, read-out: GI50 SKOV-3; for LC50 (concentration causing 50% net cell killing) / IC (TGI): SK-OV-3, SKOV-3; for LC50 (concentration causing 50% net cell killing): cell killing (cytotoxic effect), read-out: LC50 SKOV-3; for IC (TGI): total growth inhibition (cytostatic effect), read-out: TGI SKOV-3
How it was run: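 Sulforhodamine B colorimetric assay of cell growth and viability, mean ± SD of triplicate wells. Parameters derived: GI (growth inhibition), TGI (total growth inhibition, cytostatic) and LC (cell killing, cytotoxic).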

LoVo-Dox = test: SRB colorimetric cell growth inhibition assay, LoVo-Dox (MDR); assay type: cell-based
How it was run: as §1

PANC-1 = test: SRB colorimetric cell growth inhibition assay, PANC-1; assay type: cell-based; conditions: Homo sapiens; for CC50: LC=cell killing (cytotoxic effect), read-out: LC50 PANC-1; for IC (TGI): TGI=total growth inhibition (cytostatic effect), read-out: TGI PANC-1; for GI50: GI=growth inhibition, read-out: GI50 PANC-1
How it was run: as §1

[1] = Homo sapiens, IGROV; cell killing (cytotoxic effect); read-out: LC50 IGROV
[2] = Homo sapiens, LOVO-DOX; GI=growth inhibition; read-out: GI50 LOVO-DOX
[3] = Homo sapiens, LOVO-DOX; LC=cell killing (cytotoxic effect); read-out: LC50 LOVO-DOX

Compound COc1cc(-c2c3n(c4c(=O)oc5cc(OC(=O)[C@H](NC(=O)OC(C)(C)C)C(C)C)c(OC)cc5c24)CCc2cc(OC(=O)[C@H](NC(=O)OC(C)(C)C)C(C)C)c(OC)cc2-3)ccc1OC(=O)[C@H](NC(=O)OC(C)(C)C)C(C)C [Compound 34] has a GI50 (A-549) of 1470 nM, a CC50 (A-549) of 9.1 µM and an IC (TGI) (A-549) of 3.71 µM. It also gave a GI50 (K-562) of 1040 nM, a CC50 (K-562) of 6.62 µM and an IC (TGI) (K-562) of 2.61 µM. For the same compound, the GI50 (SK-MEL-28) was 1360 nM, the CC50 (SK-MEL-28) was 5.58 µM and the IC (TGI) (SK-MEL-28) was 2.76 µM. It also gave a GI50 (LNCaP) of 461 nM, a CC50 (LNCaP) of 4110 nM and an IC (TGI) (LNCaP) of 1.57 µM. For the same compound, the CC50 (DU-145; DU-145, DU-145) was 6.5 µM, the GI50 (DU-145; DU-145) was 196 nM and the IC (TGI) (DU-145; DU-145) was 0.588 µM. For the same compound, the “stimulation of DNA cleavage by topoisomerase I / inhibition of topoisomerase I (nicked DNA band) in DNA relaxation assay” value (human topoisomerase I) was “No effect”, the CC50 (SK-BR-3; SK-BR-3, SK-BR-3) was 8.95 µM and the GI50 (SK-BR-3; SK-BR-3) was 1180 nM. For the same compound, the IC (TGI) (SK-BR-3; SK-BR-3) was 3.25 µM, the CC50 (IGROV; [1]) was 8.74 µM and the GI50 (IGROV; Homo sapiens; IGROV; GI=growth inhibition; read-out: GI50 IGROV) was 307 nM. It also gave an IC (TGI) (IGROV; Homo sapiens; IGROV; total growth inhibition (cytostatic effect); read-out: TGI IGROV) of 2.11 µM, a CC50 (HT-29; HT-29, HT-29) of 9.1 µM and a GI50 (HT-29; HT-29) of 1160 nM. For the same compound, the IC (TGI) (HT-29; HT-29) was 5.39 µM, the GI50 (IGROV-ET) was 2070 nM and the CC50 (IGROV-ET) was 9.1 µM. It also gave an IC (TGI) (IGROV-ET) of 4.63 µM, a CC50 (LoVo; LoVo) of 9.1 µM and a GI50 (LoVo; LOVO) of 840 nM. It also gave an IC (TGI) (LoVo; LOVO) of 4.02 µM, a GI50 (SKOV-3) of 1270 nM and an LC50 (concentration causing 50% net cell killing) (SKOV-3) of 6.65 µM. It also gave an IC (TGI) (SKOV-3) of 2.91 µM, a GI50 (LoVo-Dox; [2]) of 9.1 µM and a CC50 (LoVo-Dox; [3]) of 9.1 µM. The IC (TGI) (LoVo-Dox; Homo sapiens; LOVO-DOX; TGI=total growth inhibition (cytostatic effect); read-out: TGI LOVO-DOX) was 9.1 µM, the CC50 (PANC-1; PANC-1, PANC-1) was 9.1 µM and the IC (TGI) (PANC-1; PANC-1, PANC-1) was 0.992 µM. For the same compound, the GI50 (PANC-1; PANC-1) was 301 nM.

Compound COc1cc(-c2c3c4cc(OC)c(OC(=O)[C@@H](N)C(C)C)cc4oc(=O)c3n3ccc4cc(OC(=O)[C@@H](N)C(C)C)c(OC)cc4c23)ccc1OC(=O)[C@@H](N)C(C)C [Compound 36] has a GI50 (A-549) of 32.8 nM, a CC50 (A-549) of 1.69 µM and an IC (TGI) (A-549) of 0.154 µM. It also gave a GI50 (K-562) of 9.48 nM, a CC50 (K-562) of 5.7 µM and an IC (TGI) (K-562) of 0.188 µM. The GI50 (SK-MEL-28) was 31.9 nM, the CC50 (SK-MEL-28) was 2.7 µM and the IC (TGI) (SK-MEL-28) was 0.181 µM. For the same compound, the GI50 (LNCaP) was 42.8 nM, the CC50 (LNCaP) was 424 nM and the IC (TGI) (LNCaP) was 0.156 µM. For the same compound, the GI50 (DU-145; DU-145, DU-145) was 10.8 nM, the CC50 (DU-145; DU-145, DU-145) was 0.668 µM and the IC (TGI) (DU-145; DU-145, DU-145) was 0.0383 µM. For the same compound, the “stimulation of DNA cleavage by topoisomerase I / inhibition of topoisomerase I (nicked DNA band) in DNA relaxation assay” value (human topoisomerase I) was “marked inhibition of topoisomerase I; also recorded: stimulated DNA cleavage by the enzyme”, the GI50 (SK-BR-3; SK-BR-3, SK-BR-3) was 39.6 nM and the CC50 (SK-BR-3; SK-BR-3, SK-BR-3) was 2.94 µM. For the same compound, the IC (TGI) (SK-BR-3; SK-BR-3, SK-BR-3) was 0.221 µM, the GI50 (IGROV; Homo sapiens, IGROV; GI=growth inhibition; read-out: GI50 IGROV) was 46.9 nM and the CC50 (IGROV; [1]) was 7.95 µM. It also gave an IC (TGI) (IGROV; Homo sapiens, IGROV; total growth inhibition (cytostatic effect); read-out: TGI IGROV) of 0.409 µM, a GI50 (HT-29; HT-29, HT-29) of 1510 nM and a CC50 (HT-29; HT-29, HT-29) of 8.78 µM. For the same compound, the IC (TGI) (HT-29; HT-29, HT-29) was 4.08 µM, the GI50 (IGROV-ET) was 76.5 nM and the CC50 (IGROV-ET) was 8.78 µM. For the same compound, the IC (TGI) (IGROV-ET) was 0.54 µM, the GI50 (LoVo; LoVo) was 158 nM and the CC50 (LoVo; LoVo) was 0.652 µM. It also gave an IC (TGI) (LoVo; LoVo) of 0.321 µM, a GI50 (SKOV-3) of 39.2 nM and an LC50 (concentration causing 50% net cell killing) (SKOV-3) of 5.89 µM. It also gave an IC (TGI) (SKOV-3) of 0.297 µM, a GI50 (LoVo-Dox; [2]) of 0.145 µM and a CC50 (LoVo-Dox; [3]) of 8.78 µM. The IC (TGI) (LoVo-Dox; Homo sapiens, LOVO-DOX; TGI=total growth inhibition (cytostatic effect); read-out: TGI LOVO-DOX) was 0.525 µM, the GI50 (PANC-1; PANC-1, PANC-1) was 169 nM and the CC50 (PANC-1; PANC-1, PANC-1) was 8.78 µM. It also gave an IC (TGI) (PANC-1; PANC-1, PANC-1) of 1.13 µM.
